Legend:
[1] = system: human glioma; reference GAMG; experiment: Glioma GAMG tumours implanted s.c. in nude mice, Aprepitant alone; type: in vivo
Experimental: (§1) Immunocompromised female mice, 5-6 weeks of age were used, nu/nu Balb/c nude mice, provided by Harlan Iberica Barcelona (Spain). They were kept at 24° C. and in sterile conditions with food and water “ad libitum”. They were injected with 2×10^7 tumour cells, corresponding to cancer (human lung cancer, reference HCC-44 supplied by DSMZ) in 200 μl of PBS subcutaneous route. The tumour size was measured and the mice were evaluated for their state of health and weight daily. The mice were randomized in nine groups when the tumours reached a volume of 75 mm^3. One of the groups was treated with 200 μl of placebo (control group) and the eight remaining groups with doses of 10 (group 1), 20 (group 2), 30 (group 3), 40 (group 4), 50 (group 5), 60 (group 6), 70 (group 7) and 80 (group 8) mg per kilogram of weight and day of the NK1 receptor antagonist Aprepitant. 3 animals were treated per group, during 28 days. All the mice were sacrificed at the end of the experiment.
(§2) Immunocompromised female mice, 5-6 weeks of age were used, in the same conditions as explained in example 1. They were injected with 2×10^7 tumour cells, corresponding to a glial cell line tumour of the central nervous system human (human glioma; reference GAMG; supplied by DSMZ) in 200 μl of PBS by subcutaneous route. The tumour size was measured and the mice were evaluated for their state of health and weight daily. The mice were randomized in nine groups when the tumours reached a volume of 75 mm^3. One of the groups was treated with 200 μl of placebo (control group) and the eight remaining groups with doses of 10 (group 1), 20 (group 2), 30 (group 3), 40 (group 4), 50 (group 5), 60 (group 6), 70 (group 7) and 80 (group 8) mg per kilogram of weight and day of the NK1 receptor antagonist Aprepitant. 3 animals were treated per group, during 28 days. All the mice were sacrificed at the end of the experiment.

[2] = system: human lymphoma; reference BC-1; experiment: Lymphoma BC-1 tumours implanted s.c. in nude mice, Aprepitant alone; type: in vivo
Experimental: as §1
as §2, with “haematological” for “glial”, “tumour” for “tumour of the central nervous system human”, “lymphoma;” for “glioma;”, “BC-1;” for “GAMG;”

[3] = system: Human adenocolon cancer SW-403; experiment: MTS cell proliferation, nanomolar antagonist, SW-403; type: cell-based; details: Aprepitant 1, 5 and 7 nM, vs cells grown in the absence of antagonist, time dependant
Experimental: (§3) Cell cultures of various commercial tumour cell lines stated in table 13 were used. [table] […] The number of cells was quantified using a Coulter counter. […] The culture plates were grown in the presence of increasing concentrations of non-peptide NK1 receptor antagonists. To obtain the staining in the proliferation assays, 20 μl of MTS were added to each one of the wells of the cell culture plates 90 minutes before reading the samples in a multiscan spectrophotometer (TECAN Spectra classic, Barcelona, Spain) at 492 nm (assay wavelength) and 690 nm (reference wavelength). The different doses were tested in duplicate and each experiment was performed in triplicate. The antagonist Aprepitant was used at the following concentrations: 1 nanomolar -nM-, 5 nanomolar -nM- and 7 nanomolar -nM-. […] As proliferation control, the cells were grown in the absence of said antagonist. This is expressed in FIGS. 1 to 10.

[4] = system: Human breast cancer MT-3; experiment: MTS cell proliferation, nanomolar antagonist, MT-3; type: cell-based; details: Aprepitant 1, 5 and 7 nM, vs cells grown in the absence of antagonist, time dependant
Experimental: as §3

[5] = system: Human lung cancer A-427; experiment: MTS cell proliferation, nanomolar antagonist, A-427; type: cell-based; details: Aprepitant 1, 5 and 7 nM, vs cells grown in the absence of antagonist, time dependant
Experimental: as §3

[6] = system: Human fibrosarcoma HT-1080; experiment: MTS cell proliferation, nanomolar antagonist, HT-1080; type: cell-based; details: Aprepitant 1, 5 and 7 nM, vs cells grown in the absence of antagonist, time dependant
Experimental: as §3

[7] = system: Human B cell lymphoma BC-1; experiment: MTS cell proliferation, nanomolar antagonist, BC-1; type: cell-based; details: Aprepitant 1, 5 and 7 nM, vs cells grown in the absence of antagonist, time dependant
Experimental: as §3

[8] = system: Human melanoma MEL HO; experiment: MTS cell proliferation, nanomolar antagonist, MEL HO; type: cell-based; details: Aprepitant 1, 5 and 7 nM, vs cells grown in the absence of antagonist, time dependant
Experimental: as §3

[9] = system: Human neuroblastoma KELLY; experiment: MTS cell proliferation, nanomolar antagonist, KELLY; type: cell-based; details: Aprepitant 1, 5 and 7 nM, vs cells grown in the absence of antagonist, time dependant
Experimental: as §3

[10] = Aprepitant 10 mg/kg/day, 7 days
[11] = Aprepitant 10 mg/kg/day, 14 days
[12] = Aprepitant 10 mg/kg/day, 21 days
[13] = Aprepitant 10 mg/kg/day, 28 days
[14] = Aprepitant 20 mg/kg/day, 7 days
[15] = Aprepitant 20 mg/kg/day, 14 days
[16] = Aprepitant 20 mg/kg/day, 21 days
[17] = Aprepitant 20 mg/kg/day, 28 days
[18] = Aprepitant 30 mg/kg/day, 7 days
[19] = Aprepitant 30 mg/kg/day, 14 days
[20] = Aprepitant 30 mg/kg/day, 21 days
[21] = Aprepitant 30 mg/kg/day, 28 days
[22] = Aprepitant 40 mg/kg/day, 7 days
[23] = Aprepitant 40 mg/kg/day, 14 days
[24] = Aprepitant 40 mg/kg/day, 21 days
[25] = Aprepitant 40 mg/kg/day, 28 days
[26] = Aprepitant 50 mg/kg/day, 7 days
[27] = Aprepitant 50 mg/kg/day, 14 days
[28] = Aprepitant 50 mg/kg/day, 21 days
[29] = Aprepitant 50 mg/kg/day, 28 days
[30] = Aprepitant 60 mg/kg/day, 7 days
[31] = Aprepitant 60 mg/kg/day, 14 days
[32] = Aprepitant 60 mg/kg/day, 21 days
[33] = Aprepitant 60 mg/kg/day, 28 days
[34] = Aprepitant 70 mg/kg/day, 7 days
[35] = Aprepitant 70 mg/kg/day, 14 days
[36] = Aprepitant 70 mg/kg/day, 21 days
[37] = Aprepitant 70 mg/kg/day, 28 days
[38] = Aprepitant 80 mg/kg/day, 7 days
[39] = Aprepitant 80 mg/kg/day, 14 days
[40] = Aprepitant 80 mg/kg/day, 21 days
[41] = Aprepitant 80 mg/kg/day, 28 days

C[C@@H](O[C@H]1OCCN(Cc2n[nH]c(=O)[nH]2)[C@H]1c1ccc(F)cc1)c1cc(C(F)(F)F)cc(C(F)(F)F)c1 [Aprepitant]
Tumour size (mean volume of the tumour) [1, 10]: 205 ± 3 cubic millimeters
Tumour size (mean volume of the tumour) [1, 11]: 185 ± 6 cubic millimeters
Tumour size (mean volume of the tumour) [1, 12]: 170 ± 7 cubic millimeters
Tumour size (mean volume of the tumour) [1, 13]: 155 ± 4 cubic millimeters
Tumour size (mean volume of the tumour) [1, 14]: 190 ± 4 cubic millimeters
Tumour size (mean volume of the tumour) [1, 15]: 160 ± 7 cubic millimeters
Tumour size (mean volume of the tumour) [1, 16]: 150 ± 6 cubic millimeters
Tumour size (mean volume of the tumour) [1, 17]: 125 ± 5 cubic millimeters
Tumour size (mean volume of the tumour) [1, 18]: 160 ± 4 cubic millimeters
Tumour size (mean volume of the tumour) [1, 19]: 145 ± 7 cubic millimeters
Tumour size (mean volume of the tumour) [1, 20]: 120 ± 6 cubic millimeters
Tumour size (mean volume of the tumour) [1, 21]: 105 ± 4 cubic millimeters
Tumour size (mean volume of the tumour) [1, 22]: 155 ± 6 cubic millimeters
Tumour size (mean volume of the tumour) [1, 23]: 125 ± 5 cubic millimeters
Tumour size (mean volume of the tumour) [1, 24]: 110 ± 5 cubic millimeters
Tumour size (mean volume of the tumour) [1, 25]: 90 ± 9 cubic millimeters
Tumour size (mean volume of the tumour) [1, 26]: 125 ± 5 cubic millimeters
Tumour size (mean volume of the tumour) [1, 27]: 110 ± 5 cubic millimeters
Tumour size (mean volume of the tumour) [1, 28]: 100 ± 5 cubic millimeters
Tumour size (mean volume of the tumour) [1, 29]: 80 ± 8 cubic millimeters
Tumour size (mean volume of the tumour) [1, 30]: 95 ± 5 cubic millimeters
Tumour size (mean volume of the tumour) [1, 31]: 85 ± 6 cubic millimeters
Tumour size (mean volume of the tumour) [1, 32]: 60 ± 6 cubic millimeters
Tumour size (mean volume of the tumour) [1, 33]: 50 ± 7 cubic millimeters
Tumour size (mean volume of the tumour) [1, 34]: 75 ± 6 cubic millimeters
Tumour size (mean volume of the tumour) [1, 35]: 60 ± 5 cubic millimeters
Tumour size (mean volume of the tumour) [1, 36]: 55 ± 5 cubic millimeters
Tumour size (mean volume of the tumour) [1, 37]: 35 ± 8 cubic millimeters
Tumour size (mean volume of the tumour) [1, 38]: 60 ± 3 cubic millimeters
Tumour size (mean volume of the tumour) [1, 39]: 45 ± 6 cubic millimeters
Tumour size (mean volume of the tumour) [1, 40]: 25 ± 7 cubic millimeters
Tumour size (mean volume of the tumour) [1, 41]: 15 ± 10 cubic millimeters
Tumour size (mean volume of the tumour) [2, 10]: 210 ± 3 cubic millimeters
Tumour size (mean volume of the tumour) [2, 11]: 195 ± 6 cubic millimeters
Tumour size (mean volume of the tumour) [2, 12]: 175 ± 7 cubic millimeters
Tumour size (mean volume of the tumour) [2, 13]: 170 ± 6 cubic millimeters
Tumour size (mean volume of the tumour) [2, 14]: 195 ± 6 cubic millimeters
Tumour size (mean volume of the tumour) [2, 15]: 175 ± 7 cubic millimeters
Tumour size (mean volume of the tumour) [2, 16]: 160 ± 6 cubic millimeters
Tumour size (mean volume of the tumour) [2, 17]: 150 ± 7 cubic millimeters
Tumour size (mean volume of the tumour) [2, 18]: 180 ± 7 cubic millimeters
Tumour size (mean volume of the tumour) [2, 19]: 155 ± 4 cubic millimeters
Tumour size (mean volume of the tumour) [2, 20]: 145 ± 8 cubic millimeters
Tumour size (mean volume of the tumour) [2, 21]: 140 ± 4 cubic millimeters
Tumour size (mean volume of the tumour) [2, 22]: 165 ± 8 cubic millimeters
Tumour size (mean volume of the tumour) [2, 23]: 165 ± 6 cubic millimeters
Tumour size (mean volume of the tumour) [2, 24]: 130 ± 5 cubic millimeters
Tumour size (mean volume of the tumour) [2, 25]: 110 ± 6 cubic millimeters
Tumour size (mean volume of the tumour) [2, 26]: 150 ± 5 cubic millimeters
Tumour size (mean volume of the tumour) [2, 27]: 145 ± 7 cubic millimeters
Tumour size (mean volume of the tumour) [2, 28]: 120 ± 6 cubic millimeters
Tumour size (mean volume of the tumour) [2, 29]: 100 ± 7 cubic millimeters
Tumour size (mean volume of the tumour) [2, 30]: 130 ± 6 cubic millimeters
Tumour size (mean volume of the tumour) [2, 31]: 130 ± 8 cubic millimeters
Tumour size (mean volume of the tumour) [2, 32]: 100 ± 7 cubic millimeters
Tumour size (mean volume of the tumour) [2, 33]: 85 ± 4 cubic millimeters
Tumour size (mean volume of the tumour) [2, 34]: 110 ± 4 cubic millimeters
Tumour size (mean volume of the tumour) [2, 35]: 105 ± 4 cubic millimeters
Tumour size (mean volume of the tumour) [2, 36]: 80 ± 5 cubic millimeters
Tumour size (mean volume of the tumour) [2, 37]: 80 ± 7 cubic millimeters
Tumour size (mean volume of the tumour) [2, 38]: 95 ± 6 cubic millimeters
Tumour size (mean volume of the tumour) [2, 39]: 85 ± 6 cubic millimeters
Tumour size (mean volume of the tumour) [2, 40]: 65 ± 3 cubic millimeters
Tumour size (mean volume of the tumour) [2, 41]: 65 ± 9 cubic millimeters
Proliferation of tumour cells (MTS) [3]: increase was observed of proliferation
Proliferation of tumour cells (MTS) [4]: increase was observed of proliferation
Proliferation of tumour cells (MTS) [5]: increase was observed of proliferation
Proliferation of tumour cells (MTS) [6]: increase was observed of proliferation
Proliferation of tumour cells (MTS) [7]: increase was observed of proliferation
Proliferation of tumour cells (MTS) [8]: increase was observed of proliferation
Proliferation of tumour cells (MTS) [9]: increase was observed of proliferation
